Experimental data reported in article PMC10327353 (Breast Cancer Research : BCR, 2023).
Like-named read-outs stand apart in the source and are kept apart here.

What was measured:
[1] = tested on: CYP P450s; experiment: CYP P450 inhibition and induction; assay type: in vitro ADME; conditions: in vitro
[2] = In vivo CNS-PK study in monkey; conditions: female, cynomolgus monkey, CSF (relative to unbound plasma/blood), single PO dose of DZD1516 30 mg/kg
Procedure: The ability of DZD1516 and DZ2678 to cross the BBB in female Wistar Han rat and female Cynomolgus monkey was studied by assessing the free brain-to-plasma ratio (Kp,uu,brain) and CSF-to-free plasma ratio (Kp,uu,CSF). Total brain-to-blood ratio (Kp,brain) and CSF-to-blood ratio (Kp,CSF) were measured from six time points after oral administration. Free fractions of DZD1516 and DZ2678 in the biological matrix were determined by in vitro plasma and brain binding assay.
Kp,brain= AUCbrain/AUCblood. Kp,CSF was the average of the CSF-to-blood ratios at the evaluated time points. Kp,uu,brain= Kp,brain× fu,brain/fu,blood; Kpuu,CSF= Kp,CSF/fu,blood.
Three female Cynomolgus monkeys were administered with a single PO dose of DZD1516 at 30 mg/kg. The PO dosing formulation was a suspension in 0.5% HPMC E5 in water (w/v). Plasma and CSF samples were collected at 0.5, 1, 2, 4, 8, and 24 hrs post-dose. The concentrations of DZD1516 and metabolite DZ2678 in monkey plasma and CSF were determined by the validated LC-MS/MS method.

[3] = DMPK modeling prediction of human half-life
[4] = tested on: A431 cells; experiment: Cell proliferation assay (CellTiter-Glo), A431; assay type: cell-based; conditions: Homo sapiens, A-431; A431, 72 hrs
Procedure: BT474C1-Luci Mono1 cells were seeded in 384-well plates at 1500 cells/well in DMEM medium containing 10% FBS and 1 mM Oxaloacetic acid (OAA). A431 cells were seeded in 384-well plates at 1,000 cells/well in DMEM medium containing 10% FBS. After overnight incubation, cells were treated with compounds at various concentrations for 3 days. Then cell viability was measured using a CellTiter-Glo Luminescent Cell Viability Assay from Promega Corp. according to the manufacturer's instructions.

[5] = Phase 1 study: plasma pharmacokinetics; assay type: in vivo, human; conditions: for AUC(0-t): 250 mg
Procedure: Blood samples for PK analyses of DZD1516 and DZ2678 were collected on C0D1. Samples were obtained at pre-dose and at 0.5, 1, 1.5, 2, 2.5, 3, 4, 6, 8, 10, 24, 48, and 72 h after the dose, while for C1D15, samples were obtained at pre-dose and 0.5, 1, 1.5, 2, 2.5, 3, 4, 6, 8, and 10 h after the dose. CSF samples for PK analyses of DZD1516 and its metabolite DZ2678 were collected from patients with BM (C1D15) and LM (C1D15 and C3D1) at steady state (Additional file 1). Plasma and CSF samples were analyzed by LabCorp Madison laboratory (Madison, WI, USA) and LabCorp Shanghai laboratory (Shanghai, China) using a validated LC/MS/MS bioanalytical method to determine DZD1516 and DZ2678 concentrations. Non-compartmental PK analysis was performed using Phoenix WinNonlin (Certara USA Inc., version 8.3.3.33).
Blood samples for PK analyses of DZD1516 and DZ2678 were collected on C0D1 and C1D15.
Plasma concentrations of analytes evaluated in this study were determined using validated bioanalytical methods at Labcorp Madison lab (Madison, WI, USA) and Labcorp Shanghai lab (Shanghai, China). Concentrations of analytes in human plasma containing K2EDTA as an anticoagulant was determined using plasma precipitation, followed by analysis using high-performance LC-MS/MS detection. Two bioanalytical methods used […] of plasma and were linear over the range of 5.00 (the lower limit of quantification) to 5000 ng/mL for DZD1516 and 2.00 (the lower limit of quantification) to 2000 ng/mL for DZ2678 (Labcorp Shanghai lab), 1.96 (the lower limit of quantification) to 1960 ng/mL for DZ2678 (Labcorp Madison lab). The analysis runs for all analytes were determined to have a high degree of reproducibility and acceptably low inter-run carryover, which was considered acceptable for PK quantification. The plasma samples were stored at –70°C until analysis. PK analyses were performed by using Phoenix WinNonLin (Certara USA, Inc., Version 8.1 or higher).

[6] = tested on: BT474C1-Luci Mono1 SC xenograft; experiment: SC (subcutaneous) BT474C1-Luci Mono1 xenograft model; assay type: in vivo, nude mice
Procedure: Tumor cell suspension at 5 × 10^6 were injected subcutaneously in a total volume of 0.2 ml (1:1 with ECM Gel) into each mouse. 17β-ESTRADIOL (90-day release, 0.36 mg/pellet) were implanted 24 hrs before cells were injected subcutaneously. Tumor nodules were measured in two dimensions with caliper and the tumor volume was calculated using the following formula: tumor volume = (length × width^2) × 0.5. Tumor-bearing mice were randomized into different treatment groups when the mean tumor volume reached around 150 mm^3.

[7] = molecular target: T1, BCRP (Homo sapiens, UniProt Q9UNQ0); experiment: BCRP efflux ratio, bi-directional transport assay; assay type: in vitro ADME
T1 construct: endogenous in cells; host or cells: Caco-2
T1 sequence (Q9UNQ0 whole entry): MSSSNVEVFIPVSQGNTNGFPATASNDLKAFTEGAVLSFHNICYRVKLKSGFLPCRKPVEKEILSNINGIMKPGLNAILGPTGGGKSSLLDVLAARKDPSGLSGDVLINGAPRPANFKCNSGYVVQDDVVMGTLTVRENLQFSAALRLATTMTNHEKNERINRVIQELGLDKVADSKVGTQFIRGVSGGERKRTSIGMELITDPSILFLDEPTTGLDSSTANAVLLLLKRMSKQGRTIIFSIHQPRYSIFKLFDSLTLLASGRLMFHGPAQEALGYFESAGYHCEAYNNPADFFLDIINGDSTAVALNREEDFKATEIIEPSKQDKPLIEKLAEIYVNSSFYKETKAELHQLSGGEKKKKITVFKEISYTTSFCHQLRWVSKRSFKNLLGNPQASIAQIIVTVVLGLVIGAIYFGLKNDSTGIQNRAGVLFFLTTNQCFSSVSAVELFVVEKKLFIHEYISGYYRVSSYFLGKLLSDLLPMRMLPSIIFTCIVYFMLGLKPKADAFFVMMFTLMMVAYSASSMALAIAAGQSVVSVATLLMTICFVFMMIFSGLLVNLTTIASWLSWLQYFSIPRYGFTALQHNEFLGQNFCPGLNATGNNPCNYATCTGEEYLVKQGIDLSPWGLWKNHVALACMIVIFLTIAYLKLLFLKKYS

## COc1cc(O[C@H]2CCN(C)CC2(F)F)c2c(Nc3ccc(Oc4ccn5ncnc5c4)c(C)c3)ncnc2c1 [DZD1516]
[1]
  CYP P450s inhibitor and inducer: not a CYP P450s inhibitor and inducer
[2]
  Kp uu: 4.1
[3]
  predicted human half-life: about 8 h
[4]
  GI50: 8.87 µM
[5]; Day 15, 250 mg BID DZD1516
  Css,max, Geometric Mean [CV%]: 1410[44.64] ng/mL
  Css,min, Geometric Mean [CV%]: 442.8[50.12] ng/mL
  tss,max, Median (Min, Max): 1.483(0.533,2.47) hr
[5]; human, plasma, oral, Day 1, 250 mg DZD1516, read-out: AUC0-10, Geometric Mean [CV%]
  AUC(0-t): 6160 ng·h/mL
[5]; human, plasma, oral, Day 1, 250 mg DZD1516, read-out: AUC0-72, Geometric Mean [CV%]
  AUC(0-t): 13200 ng·h/mL
[5]; human, plasma, oral, Day 15, 250 mg BID DZD1516, read-out: AUC0-10, Geometric Mean [CV%]
  AUC(0-t): 7560 ng·h/mL
[5]; human, plasma, oral, Day 1, 250 mg DZD1516, read-out: Cmax, Geometric Mean [CV%]
  Cmax: 1330 ng/mL
[5]; human, plasma, oral, Day 1, 250 mg DZD1516, read-out: t1/2, Mean (SD) (converted)
  half-life: 19.8 h
[5]; human, plasma, oral, Day 1, 250 mg DZD1516, read-out: tmax, Median (Min, Max)
  Tmax: 2.85 h
[5]; human, plasma, oral, Day 15, 250 mg BID DZD1516, read-out: AUCtau, Geometric Mean [CV%]
  AUC: 8340 ng·h/mL
[5]; human, plasma, oral, patients, read-out: half-life
  half-life: 13.3 to 20.1 h
[5]; human, plasma, patients, single oral administration 50 to 300 mg, read-out: median tmax
  Tmax: 2.15 to 3.22 h
[5]; steady state, 15 days of twice daily dosing
  accumulation: approximately twofold
[6]; 100 mg/kg or 150 mg/kg twice daily
  antitumor efficacy: tumor remission was achieved
[6]; monotherapy 50 mg/kg (data not shown)
  antitumor efficacy: tumor shrinkage or complete tumor remission
[7]; 1 µM, listed as Cpd-5
  Efflux ratio BCRP @1 µM: 1.3
[7]; human, Caco-2, pH 7.4, 1 µM
  efflux ratio at 120 min, 1 µM: < 2
